Data taken from PubChem BioAssay (NCI).
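A five-concentration, 48-hour dose response in 96-well plates underlies each endpoint, interpolated linearly between surrounding concentrations. GI50: concentration for 50% inhibition of growth. The concentration for full growth arrest is given as TGI.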

Columns and labels:
Test in all cases: inhibition of tumour cell growth, NCI panel, 48 h
TK-10 renal = tested on: TK-10 renal
ACHN renal = tested on: ACHN renal
OVCAR-8 ovarian = tested on: OVCAR-8 ovarian
NCI-H522 lung = tested on: NCI-H522 lung
MDA-MB-435 = tested on: MDA-MB-435
SN12C renal = tested on: SN12C renal
HCT-116 colon = tested on: HCT-116 colon
SF-268 CNS = tested on: SF-268 CNS
M14 melanoma = tested on: M14 melanoma
SF-539 CNS = tested on: SF-539 CNS
HOP-92 NSCLC = tested on: HOP-92 NSCLC
HCC-2998 colon = tested on: HCC-2998 colon
UACC-62 melanoma = tested on: UACC-62 melanoma
KM12 colon = tested on: KM12 colon
U251 CNS = tested on: U251 CNS
NCI-H460 lung = tested on: NCI-H460 lung
T-47D breast = tested on: T-47D breast
HCT-15 colon = tested on: HCT-15 colon
LOX IMVI melanoma = tested on: LOX IMVI melanoma
NCI/ADR-RES ovarian = tested on: NCI/ADR-RES ovarian
RXF 393 renal = tested on: RXF 393 renal
IGROV1 ovarian = tested on: IGROV1 ovarian
OVCAR-5 ovarian = tested on: OVCAR-5 ovarian
NCI-H23 lung = tested on: NCI-H23 lung
OVCAR-3 ovarian = tested on: OVCAR-3 ovarian
SK-MEL-5 melanoma = tested on: SK-MEL-5 melanoma
CAKI-1 renal = tested on: CAKI-1 renal
OVCAR-4 ovarian = tested on: OVCAR-4 ovarian
MOLT-4 leukemia = tested on: MOLT-4 leukemia
HOP-62 NSCLC = tested on: HOP-62 NSCLC
DU-145 prostate = tested on: DU-145 prostate
SK-MEL-28 melanoma = tested on: SK-MEL-28 melanoma
RPMI-8226 leukemia = tested on: RPMI-8226 leukemia
CCRF-CEM leukemia = tested on: CCRF-CEM leukemia
MCF7 breast = tested on: MCF7 breast
SNB-19 CNS = tested on: SNB-19 CNS
HS 578T breast = tested on: HS 578T breast
HT29 colon = tested on: HT29 colon
SF-295 CNS = tested on: SF-295 CNS
PC-3 prostate = tested on: PC-3 prostate
SK-OV-3 ovarian = tested on: SK-OV-3 ovarian
786-0 renal = tested on: 786-0 renal
UO-31 renal = tested on: UO-31 renal
A549 NSCLC = tested on: A549 NSCLC
EKVX NSCLC = tested on: EKVX NSCLC
BT-549 breast = tested on: BT-549 breast
SK-MEL-2 melanoma = tested on: SK-MEL-2 melanoma
MDA-MB-231 breast = tested on: MDA-MB-231 breast
SW-620 colon = tested on: SW-620 colon
UACC-257 melanoma = tested on: UACC-257 melanoma
COLO 205 colon = tested on: COLO 205 colon
SNB-75 CNS = tested on: SNB-75 CNS

`O=C(Cc1csc2nc(-c3ccc(Br)cc3)cn12)N/N=C/c1ccccc1` was tested, and the GI50 (TK-10 renal) was 14.1 µM, the TGI (TK-10 renal) was 42.1 µM and the GI50 (ACHN renal) was 10.8 µM. It also gave a TGI (ACHN renal) of 25.6 µM, a GI50 (OVCAR-8 ovarian) of 2.36 µM and a TGI (OVCAR-8 ovarian) of 20.5 µM. The GI50 (NCI-H522 lung) was 14.2 µM, the TGI (NCI-H522 lung) was 60.8 µM and the GI50 (MDA-MB-435) was 12.1 µM. For the same molecule, the TGI (MDA-MB-435) was 51.8 µM, the GI50 (SN12C renal) was 13.1 µM and the TGI (SN12C renal) was 39.9 µM. It also gave a GI50 (HCT-116 colon) of 9.32 µM, a TGI (HCT-116 colon) of 21.2 µM and a GI50 (SF-268 CNS) greater than 100 µM. The TGI (SF-268 CNS) was greater than 100 µM, the GI50 (M14 melanoma) was 20.9 µM and the TGI (M14 melanoma) was greater than 100 µM. For the same molecule, the GI50 (SF-539 CNS) was 16.2 µM, the TGI (SF-539 CNS) was 39.4 µM and the GI50 (HOP-92 NSCLC) was 12.2 µM. The TGI (HOP-92 NSCLC) was 37 µM, the GI50 (HCC-2998 colon) was 13.2 µM and the TGI (HCC-2998 colon) was 49.3 µM. The GI50 (UACC-62 melanoma) was 11.6 µM, the TGI (UACC-62 melanoma) was 28.2 µM and the GI50 (KM12 colon) was 26.1 µM. The TGI (KM12 colon) was greater than 100 µM, the GI50 (U251 CNS) was 12.7 µM and the TGI (U251 CNS) was 32.1 µM. For the same molecule, the GI50 (NCI-H460 lung) was 53 µM, the TGI (NCI-H460 lung) was greater than 100 µM and the GI50 (T-47D breast) was 36.9 µM. For the same molecule, the TGI (T-47D breast) was greater than 100 µM, the GI50 (HCT-15 colon) was 16.3 µM and the TGI (HCT-15 colon) was greater than 100 µM. The GI50 (LOX IMVI melanoma) was 12.2 µM, the TGI (LOX IMVI melanoma) was 90.8 µM and the GI50 (NCI/ADR-RES ovarian) was 13.6 µM. It also gave a TGI (NCI/ADR-RES ovarian) of 67.6 µM, a GI50 (RXF 393 renal) of 14.5 µM and a TGI (RXF 393 renal) of 38.8 µM. For the same molecule, the GI50 (IGROV1 ovarian) was 11.2 µM, the TGI (IGROV1 ovarian) was 32.7 µM and the GI50 (OVCAR-5 ovarian) was 30.7 µM. It also gave a TGI (OVCAR-5 ovarian) greater than 100 µM, a GI50 (NCI-H23 lung) of 12.6 µM and a TGI (NCI-H23 lung) of 61.4 µM. The GI50 (OVCAR-3 ovarian) was 24.1 µM, the TGI (OVCAR-3 ovarian) was 46.3 µM and the GI50 (SK-MEL-5 melanoma) was 5.66 µM. The TGI (SK-MEL-5 melanoma) was 26.9 µM, the GI50 (CAKI-1 renal) was 30.3 µM and the TGI (CAKI-1 renal) was 82.2 µM. For the same molecule, the GI50 (OVCAR-4 ovarian) was 47.1 µM, the TGI (OVCAR-4 ovarian) was greater than 100 µM and the GI50 (MOLT-4 leukemia) was 6.69 µM. The TGI (MOLT-4 leukemia) was 37 µM, the GI50 (HOP-62 NSCLC) was 15.3 µM and the TGI (HOP-62 NSCLC) was 39.8 µM. It also gave a GI50 (DU-145 prostate) of 14.6 µM, a TGI (DU-145 prostate) of 45.1 µM and a GI50 (SK-MEL-28 melanoma) greater than 100 µM. It also gave a TGI (SK-MEL-28 melanoma) greater than 100 µM, a GI50 (RPMI-8226 leukemia) of 7.38 µM and a TGI (RPMI-8226 leukemia) greater than 100 µM. It also gave a GI50 (CCRF-CEM leukemia) of 17.3 µM, a TGI (CCRF-CEM leukemia) greater than 100 µM and a GI50 (MCF7 breast) of 75.9 µM. For the same molecule, the TGI (MCF7 breast) was greater than 100 µM, the GI50 (SNB-19 CNS) was 44.1 µM and the TGI (SNB-19 CNS) was greater than 100 µM. For the same molecule, the GI50 (HS 578T breast) was 16.4 µM, the TGI (HS 578T breast) was 51.1 µM and the GI50 (HT29 colon) was 44 µM. For the same molecule, the TGI (HT29 colon) was greater than 100 µM, the GI50 (SF-295 CNS) was 12.1 µM and the TGI (SF-295 CNS) was 37.4 µM. The GI50 (PC-3 prostate) was 20.2 µM, the TGI (PC-3 prostate) was greater than 100 µM and the GI50 (SK-OV-3 ovarian) was 65.7 µM. For the same molecule, the TGI (SK-OV-3 ovarian) was greater than 100 µM, the GI50 (786-0 renal) was 27.7 µM and the TGI (786-0 renal) was greater than 100 µM. For the same molecule, the GI50 (UO-31 renal) was 58.2 µM, the TGI (UO-31 renal) was greater than 100 µM and the GI50 (A549 NSCLC) was 13.5 µM. For the same molecule, the TGI (A549 NSCLC) was 40.9 µM, the GI50 (EKVX NSCLC) was 6.95 µM and the TGI (EKVX NSCLC) was 52.5 µM. For the same molecule, the GI50 (BT-549 breast) was 13 µM, the TGI (BT-549 breast) was 49.1 µM and the GI50 (SK-MEL-2 melanoma) was 33 µM. It also gave a TGI (SK-MEL-2 melanoma) greater than 100 µM, a GI50 (MDA-MB-231 breast) of 13 µM and a TGI (MDA-MB-231 breast) of 58.2 µM. It also gave a GI50 (SW-620 colon) of 18.8 µM, a TGI (SW-620 colon) of 62.8 µM and a GI50 (UACC-257 melanoma) of 6.21 µM. It also gave a TGI (UACC-257 melanoma) of 32 µM, a GI50 (COLO 205 colon) of 66.1 µM and a TGI (COLO 205 colon) greater than 100 µM. The GI50 (SNB-75 CNS) was 31.8 µM and the TGI (SNB-75 CNS) was 89.2 µM.
